Laboratory results: paper PMC6984391, “Anion carriers as potential treatments for cystic fibrosis: transport in cystic fibrosis cells, and additivity to channel-targeting drugs” (Chemical Science, 2019)

Tests used:
[1] = test system: YFP-FRT cells; assay: YFP fluorescence plate reader assay of anion transport in YFP-FRT cells; type: cell-based, Fischer rat; conditions: for anion transport activity in YFP-FRT cells (in words): 50 μM; for Corrected absolute initial slope |dF/dT|: transporter 50 μM, DMSO 0.5% v/v, DMSO-only subtracted, I^– 100 mM
Description: We treated YFP-FRT cells with anionophores (final concentration, 1–50 μM) or the vehicle DMSO (0.1–0.5% v/v) by direct addition to the phosphate-buffered saline (PBS) bathing the cells. After incubating YFP-FRT cells with anionophores for 10 minutes at 37 °C, we evaluated anion transport activity by adding I^– (100 mM), using a PBS iodide solution with Cl^– replaced by I^–, and following cell fluorescence for 14 s. FRT cells are relatively impermeable to anions because they lack key ion channels found in epithelial cells, including CFTR.[33] Thus, in the absence of anionophore, iodide cannot enter YFP-FRT cells and no quenching of fluorescence occurs. By contrast, in the presence of an anionophore, iodide influx occurs leading to fluorescence quenching.[29]
To quantify anion transport by different anionophores, we fitted first order exponential functions to the iodide-induced fluorescence decay to measure the initial slope, averaging values over multiple experiments. Fig. 2b and Table 1 summarise the data. Consistent with our previous results,[29] we observed a wide range of anion transport activity. […] We therefore selected for further study 11, 12, 15 and 19.
FRT cells stably expressing the halide sensor YFP-H148Q/I152L6 were generous gifts of AS Verkman (University of California, San Francisco), while CFBE41o- cells7 stably expressing YFP (YFP-CFBE cells) were a generous gift of LJV Galietta (Telethon Institute for […]
Genetics and Medicine). […]
U ml-1 penicillin and […] streptomycin. All cells were incubated at 37 °C in a humidified atmosphere with 5% CO2. […]
Fluorescence plate reader assay […]
quenching of YFP fluorescence at 37 °C using a microplate reader following the method of Galietta et al..9 The microplate reader (model: FLUORstar Omega; BMG LABTECH Ltd., Aylesbury, UK) was equipped with a syringe pump and excitation (500 ± 10 nm) and emission (535 ± 15 nm) filters (Chroma Technology GmbH, Olching, Germany). After washing cells twice with PBS (composition (mM): 137 NaCl, 2.7 KCl, 8.1 Na2HPO4, 1.5 KH2PO4, 1 CaCl2 and 0.5 MgCl2, pH 7.40), cells were incubated with test anionophores (1 – 50 µM) or the vehicle (DMSO [0.1 – 0.5% v v-1]) in 40 µl of PBS for 10 – 120 minutes according to the experimental design. Other compounds, including forskolin, ivacaftor and channel inhibitors were added to […]
the PBS bathing cells 10 minutes prior to PBS iodide addition, whereas UTP was added to cells with the PBS iodide solution. Fluorescence was measured for 14 seconds; 2 seconds before and 12 seconds after injection of 110 µl PBS iodide solution (137 mM Cl- replaced by I-) into each well (to obtain a final concentration of I- of 100 mM).
We expressed cell fluorescence values (F) relative to the fluorescence value immediately before I- injection (F0), excluding the initial decrease, which likely represents the quenching of extracellular YFP released from cells and signal reduction accompanying the increase in solution volume bathing cells. To quantify anion transport by test anionophores, we determined the initial slope of the fluorescence decay following I - addition by fitting first order exponential functions to the last 12 seconds of each fluorescence recording. In each experim ent, n values represent the mean of two replicates and all treatments were tested at least three times using different microplates. […]
FRT cells was selected and the cells were perfused with (i) PBS for 5 minutes then (ii) PBS containing I- (10 mM) (made by preparing PBS with 127 mM NaCl to maintain osmolarity) for 5 minutes and finally (iii) PBS for 30 minutes to remove thoroughly I- from the perfusion chamber. YFP-FRT cells were repeatedly treated with I- (10 mM) and then washed with PBS […]
During all interventions, the rate of solution perfusion was 8 – 10 ml min-1; temperature was 37 °C and except for the first

[2] = test system: YFP-FRT cells; assay: IncuCyte ZOOM live-cell viability (DRAQ7) in YFP-FRT cells; type: cell-based
Description: For cytotoxicity studies, we used YFP-CFBE and YFP-FRT cells. […]
To evaluate the viability of YFP -FRT cells, we used the IncuCyte ZOOM TM (Essen Bioscience (now Sartorius), Welwyn Garden City, UK) live-cell analysis system. YFP-FRT cells were seeded in 96-well plates at a density of 4000 cells well-1 and allowed to grow for 48 h at 37 °C in a humidified atmosphere of 5% CO2. Then, the YFP-FRT culture media was replaced with fresh culture media containing test anionophores or the vehicle (DMSO 0.5% v v-1) and deep red anthraquinone 7 (DRAQ7; Biostatus, Shepshed, UK) was added following the manufacturer’s instructions before the YFP-FRT cells were transferred to the IncuCyte ZOOMTM. At 2 h intervals over a 24 h period, 4 images of each well on 96-well plates were acquired; the phase contrast images were used to determine the total number of cells per well, while the fluorescence images to identify the number of dead cells with nuclei labelled red by DRAQ7. In each experiment, one data point is the average value from four wells. […]
To investigate further the cytotoxicity of anionophores 12, 15 and 19 we used YFP-FRT cells. As a control we tested compound 11. Using the IncuCyte ZOOMTM (Essen Bioscience) live-cell analysis system and the membrane impermeable far-red fluorescent DNA dye DRAQ7 to label the nuclei of dead cells, we examined the effects of the anionophores 11, 12, 15 and 19 on the viability of YFP -FRT cells over a 24 h period. Consistent with our previous results (Fig.
S23 and ref 10), compound 11 had little effect on cell viability. Only at the highest concentrations tested (30 and 50 µM) and at time points later than 12 h (50 µM) or 14 h (30 µM) did cytotoxicity become apparent ( P < 0.05 vs. DMSO 0.5% v v -1) (Fig. S24). By contrast, the same concentrations of compounds 12, 15 and 19 had cytotoxic effects from 2 h with […]
19 (10 µM) from 8 h onwards (P < 0.05 vs. DMSO 0.5% v v -1) (Fig. S24).

[3] = set-up: method as in ref [16 and 25], [20], [21], [22], [23], [24], [29] (Reference column); conditions: 1H NMR titrations with Bu4N^+Cl^– in DMSO-d6/H2O (200 : 1) at 298 K; ref [16 and 25], [20], [21], [22], [23], [24], [29]; cited from earlier work
[4] = 10 μM, 24 h period, P < 0.05 vs. DMSO
[5] = 30 μM, 24 h period, P < 0.05 vs. DMSO
[6] = 50 μM, 24 h period, P < 0.05 vs. DMSO

In the case of `CCOC(=O)[C@]12CC[C@@H](NC(=S)Nc3cc(C(F)(F)F)cc(C(F)(F)F)c3)C[C@@H]1C[C@@H](NC(=S)Nc1cc(C(F)(F)F)cc(C(F)(F)F)c1)CC2` [Compound 15], the “anion transport activity in YFP-FRT cells (in words)” value (from here on “anion transport activity”) [1] was “notable decays in fluorescence”, the “Corrected absolute initial slope |dF/dT|” value [1] was 22.6 ×10^–3 s^–1 and the “time points at which cytotoxicity is apparent” value (“time points” below) ([2]; 5 μM, 24 h period, P < 0.05 vs. DMSO) was no less than 2 h. The “toxicity (IncuCyte ZOOM)” value ([2]; 10 μM) was “some cell death”, the “time points” value [2, 4] was no less than 2 h and the “time points” value [2, 5] was no less than 2 h. The “time points” value [2, 6] was no less than 2 h and the “K a to Cl^– in DMSO” value [3] was 2.4 × 10^3 M^–1.
In the case of `CCOC(=O)[C@]12CC[C@@H](NC(=S)Nc3ccc([N+](=O)[O-])cc3)C[C@@H]1C[C@@H](NC(=S)Nc1ccc([N+](=O)[O-])cc1)CC2` [Compound 12], the “anion transport activity” value [1] was “notable decays in fluorescence”, the “Corrected absolute initial slope |dF/dT|” value [1] was 17.2 ×10^–3 s^–1 and the “time points” value ([2]; rat, 24 h, 30 µM) was no less than 2 h. The “time points” value ([2]; rat, 24 h, 50 µM) was no less than 2 h.
In the case of `FC(F)(F)c1ccc(NC(=S)NCCN(CCNC(=S)Nc2ccc(C(F)(F)F)cc2)CCNC(=S)Nc2ccc(C(F)(F)F)cc2)cc1` [Compound 18], the “Corrected absolute initial slope |dF/dT|” value [1] is listed as 1.1 ×10^–3 s^–1 and the “K a to Cl^– in DMSO” value [3] is listed as 9.6 × 10^2 M^–1.
In the case of `COCCOCCOC(=O)[C@]12CC[C@@H](NC(=O)Nc3cc(C(F)(F)F)cc(C(F)(F)F)c3)C[C@@H]1C[C@@H](NC(=O)Nc1cc(C(F)(F)F)cc(C(F)(F)F)c1)CC2` [Compound 10], the “Corrected absolute initial slope |dF/dT|” value [1] was 0.7 ×10^–3 s^–1.
For `CCCCCCCCOC(=O)[C@]12CC[C@@H](NC(=S)Nc3ccc([N+](=O)[O-])cc3)C[C@@H]1C[C@@H](NC(=S)Nc1ccc([N+](=O)[O-])cc1)CC2` [Compound 13], the “anion transport activity” value [1] was “intermediate levels” and the “Corrected absolute initial slope |dF/dT|” value [1] was 3.3 ×10^–3 s^–1.
In the case of `FC(F)(F)c1cc(NC(=S)NCCN(CCNC(=S)Nc2cc(C(F)(F)F)cc(C(F)(F)F)c2)CCNC(=S)Nc2cc(C(F)(F)F)cc(C(F)(F)F)c2)cc(C(F)(F)F)c1` [Compound 19], the “anion transport activity” value [1] was “notable decays in fluorescence”, the “Corrected absolute initial slope |dF/dT|” value [1] was 12.2 ×10^–3 s^–1 and the “toxicity (IncuCyte ZOOM)” value ([2]; 10 μM) was “some cell death”. For the same molecule, the “time points” value [2, 4] was no less than 8 h, the “time points” value [2, 5] was no less than 2 h and the “time points” value [2, 6] was no less than 2 h. The “K a to Cl^– in DMSO” value [3] was 4.4 × 10^3 M^–1.
With `COCCOCCOC(=O)[C@]12CC[C@@H](NC(=O)Nc3ccc(C(F)(F)F)cc3)C[C@@H]1C[C@@H](NC(=O)Nc1ccc(C(F)(F)F)cc1)CC2` [Compound 9] the “Corrected absolute initial slope |dF/dT|” value [1] was 1.1 ×10^–3 s^–1.
